Test results reported in article PMC12311729, “Probing the Mechanism of L‑DOPA 2,3-Dioxygenase Using Synthetic Derivatives of 3,4-Dihydroxyhydrocinnamic Acid” (ACS Omega, 2025).

Assays:
[1] = design: method as in Biochemistry 2021, 60, 32, 2492–2507; conditions: ref Biochemistry 2021, 60, 32, 2492–2507, cited from earlier work; for Catecholic pKa value relative to L-DOPA x 100: percentage of L-DOPA
[2] = design: method as in Biochemistry 2021, 60, 32, 2492–2507; conditions: percentage of L-DOPA; ref Biochemistry 2021, 60, 32, 2492–2507; cited from earlier work
[3] = molecular target: L-DOPA 2,3-dioxygenase from S. lincolnensis (LmbB1) (Streptomyces lincolnensis, UniProt Q54354); design: method as in Biochemistry 2021, 60, 32, 2492–2507; conditions: percentage of L-DOPA; ref Biochemistry 2021, 60, 32, 2492–2507; cited from earlier work
[4] = molecular target: L-DOPA 2,3-dioxygenase from S. hygroscopicus jingganensis (ShjDDO) (Streptomyces hygroscopicus, UniProt H2JL11); design: method as in Biochemistry 2021, 60, 32, 2492–2507; conditions: percentage of L-DOPA; ref Biochemistry 2021, 60, 32, 2492–2507; cited from earlier work
Chain of L-DOPA 2,3-dioxygenase from S. hygroscopicus jingganensis (ShjDDO) (H2JL11 1-162): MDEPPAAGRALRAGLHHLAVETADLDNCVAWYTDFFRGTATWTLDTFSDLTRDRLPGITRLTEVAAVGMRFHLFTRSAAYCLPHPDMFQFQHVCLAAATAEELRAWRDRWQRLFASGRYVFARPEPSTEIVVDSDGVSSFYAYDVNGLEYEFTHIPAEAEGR

[5] = design: method as in Biochemistry 2021, 60, 32, 2492–2507; conditions: percentage of L-DOPA; ref Biochemistry 2021, 60, 32, 2492–2507; cited from earlier work; remark: listed apart in the source
[6] = system: N#Cc1cc(O)c(O)cc1CCC(=O)O; test: UV-visible steady-state assay of L-DOPA 2,3-dioxygenase (ShjDDO); format: biochemical, Streptomyces hygroscopicus jingganensis; conditions: other: S. hygroscopicus jingganensis enzyme
Protocol: (§1) Purified, reconstituted L-DOPA 2,3-dioxygenases were assessed for activity by monitoring the cleavage of catecholic substrates using UV–visible spectroscopy. 3,4-Dihydroxyhydrocinnamic acid (DHHCA, 3) was purchased from Sigma-Aldrich. 6-CyanoDHHCA (5) and 6-bromoDHHCA (4) were synthesized as described above.
(§2) Molecular oxygen (AirGas) was bubbled directly into the reaction buffer through a glass-bonded silica gas diffuser (Bubblemac Industries, Inc.) or as a gas mixture blended with air (AirGas). Solutions were bubbled with oxygen for several minutes prior to use and for the duration of the experiment. To determine the K M for oxygen (i.e., K MO2), L-DOPA 2,3-dioxygenases (0.25–4.0 μM) were reacted with a saturating concentration of the catecholic substrate DHHCA/6-X-DHHCA derivatives (2–10× the K M sufficient to achieve k cat) and various oxygen concentrations (21–100% or 270–1300 μM at 22 °C). The concentration of oxygen was varied by changing the percentage of oxygen in the blend using a galvanic oxygen sensor and oxygen monitor (AirGas) and then bubbling solutions, as described above. Molecular oxygen percentages were converted to molar concentrations using a reference temperature of 22 °C. The reaction of L-DOPA 2,3-dioxygenases with DHHCA/6-X-DHHCA derivatives as a function of oxygen concentration was followed by the appearance of the steady-state cleavage product by using UV–visible spectroscopy.
(§3) The extinction coefficients for steady-state cleavage products of DHHCA and synthetic 6-X-DHHCA derivatives were determined by reacting various concentrations of DHHCA/6-X-DHHCA derivatives at 22 °C with a 10-fold stoichiometric excess of enzyme (quantified by Fe^II–see Reconstitution) in 50 mM HEPES buffer with 154 mM NaCl at pH 7.5, bubbled with 100% oxygen to a final concentration of 780–910 μM, depending on the volume of oxygenated buffer that comprised the reaction (60–70%). Substrate solutions were prepared from authentic synthetic standards using an analytical balance, and reactions were run to completion as assessed by the appearance of the steady-state product. The λmax and extinction coefficients of DHHCA, 6-cyanoDHHCA, and 6-bromoDHHCA were determined herein as ε380 = 40 740 ± 820 M^–1cm^–1, ε385 = 33 256 ± 484 M^–1cm^–1, and ε380 = 35 282 ± 1190 M^–1cm^–1, respectively (Figure S52).
(§4) Steady-state kinetic data were obtained through a UV–visible spectroscopic assay. Initial rates were obtained from the slopes of the linear regions of the progress curves and plotted versus substrate concentration to yield a hyperbola, which was analyzed using the Michaelis–Menten expression and nonlinear least-squares fitting (NLSF) with Origin 6.0 (Microcal). Two possible derivations of the Michaelis–Menten expression were used: 1) the traditional expression y = k cat × x/(K M + x), where y is Rate/E 0 or the rate of product formation (μM/min) divided by the starting enzyme concentration (μM), x is substrate concentration (μM) and k SP (also known as k cat × K M ^–1)–that is, the second-order rate constant of enzyme and substrate–is extracted from the fitted constants; or 2) the alternative derivation that extracts k SP and k cat directly from the fit: y = (k SP × x)/((1 + k SP × x)/k cat), and where y is Rate/E 0 or the rate of product formation (μM/min) divided by the starting enzyme concentration (μM), x is substrate concentration (μM), k SP is equivalent to k cat×K M ^–1, and K M is extracted from k cat/k cat×K M ^–1.

O=C(O)CCc1cc(O)c(O)cc1Br = test: as above; format: biochemical, Streptomyces hygroscopicus jingganensis; conditions: other: S. hygroscopicus jingganensis enzyme
Protocol: as §1, §2, §3, §4

O=C(O)CCc1ccc(O)c(O)c1 = test: as above; format: biochemical, Streptomyces hygroscopicus jingganensis; conditions: other: S. hygroscopicus jingganensis enzyme
Protocol: as §1, §2, §3, §4

[7] = Cyclic voltammetry (redox potentials on a GCE); format: physicochemical; conditions: GCE (d = 2 mm)
Description: Reduction and oxidation potentials were experimentally performed by cyclic voltammetry (CV) at biological pH 7.4, as previously described. All samples were run on a CH Instruments 600E Potentiostat in a one-compartment cell equipped with a three-electrode system arrangement. The three-electrode system included a saturated calomel electrode as the reference electrode, a platinum wire as the auxiliary electrode, and a glassy carbon electrode (GCE, d = 2 mm) as the working electrode. The GCE was polished between each sample scan with an aqueous slurry of alumina powder on a microcloth pad. The electrodes were rinsed with distilled water prior to the next scan. All scans were conducted under nitrogen for oxygen displacement and at room temperature (rt, 25 ± 1 °C). All samples were prepared as close to the scan as possible (approximately 2 min each). Each sample (5 mL) contained 0.1 mM catecholic substrate and 1 μM DMSO in 0.1 M phosphate buffer at a pH of 7.4 or 6.0. […] The cyclic voltammograms for the compounds at both pH 6.0 and 7.4 are available in Figures S40–S51.

[8] = Determination of pKa values by spectrophotometric titration; conditions: first catecholic deprotonation; determined spectroscopically from pH 3 to 12.5
Protocol: A buffer system utilizing five different buffers was prepared to cover the pH range of 3.0 to 12.50. A Thermo Scientific Orion Star A211 pH meter was used to measure and determine the pH of each buffer. The pH meter was calibrated using three- and four-point calibration with pH values of 4.00, 7.01, and 10.01 and 4.00, 7.01, 10.01, and 12.00, respectively.
The buffer systems were prepared as previously described and included: NaOAc/HOAc buffers (C = 0.1 M; I = 0.1 M) were used to cover the pH range of 3.0 to 5.50. KH2PO4/K2HPO4 buffers (C = 0.05 M; I = 0.1 M) were used to cover the pH range of 6.00 to 8.00. CHES buffers (C = 0.05 M; I = 0.1 M) were used to cover the pH range of 8.50 to 10.50. Na2HPO4/Na3PO4 buffers (C = 0.05 M; I = 0.1 M) were used to cover the pH range of 11.00 to 12.00. KCl buffers (C = 0.1 M; I = 0.1 M) were used to cover the pH range of 12.00 to 12.50.
The absorbance spectra of the compounds were determined at each pH as previously described. Briefly, a stock solution was prepared for each compound by weighing 2 mg of the compound using a high-precision analytical balance. Each compound was then dissolved in DMSO at a concentration of 10 mM. A UV-transparent 96-well microplate (Corning clear acrylic 96-well UV plate with a UV-transparent flat bottom) was loaded with 196 μL of buffer solution and 4 μL of the catechol stock in each well to get a final concentration of 200 μM. DMSO (4 μL) was added to 196 μL of the appropriate buffer to produce a blank solution for each buffer.
The 96-well plate was loaded into the microplate reader and incubated at 30 °C and shaken for 10 min before the reading. Absorbance readings were completed by using a Synergy HTX 15032517 microplate reader. Each well was read at wavelengths from 210 to 600 nm with 2-nm increments for each scan over a duration of 60 min.
The data were analyzed as previously described. Raw UV-spectra scans were exported to the Excel program. They were first processed by subtracting the reading of the blank solutions from the reading of each compound at the corresponding wavelengths. […] Finally, the spectral difference between the pH 3.0 buffer and the spectra at all other pH values was plotted. Additionally, the spectral difference between the pH 4.0 buffer and the spectra at all other higher pH values was plotted. The wavelengths for the maximum positive and negative absorbance were determined by using the graphs of the spectral difference plots, both for the pH 3.0 and pH 4.0 spectral difference plots. The absolute maximum positive and total absorbance differences at these chosen wavelengths were plotted against the pH of each buffer. The data were imported into the Origin 6.0 program, and the pK a values were determined with a nonlinear regression using eq : 1 Absorbancetotal=εHA−εA−[10^(pH−pKa)]/1+10^(pH−pKa)×[St]
εHA is the extinction coefficients of the acid form of the compound, and εA ^– is the extinction coefficient of the base form of the compound (i.e., the minima and maxima of the absorbance difference curve, respectively), and [S t] is the total compound concentration.

[9] = substrate: N#Cc1cc(O)c(O)cc1CCC(=O)O; test: UV-visible steady-state assay of L-DOPA 2,3-dioxygenase (LmbB1); format: biochemical, Streptomyces lincolnensis; conditions: other: S. lincolnensis enzyme, pH 7.5, 22 °C
Protocol: as §1
as §2, with “Molecular oxygen percentages were converted to molar concentrations using a reference temperature of 22 °C. The reaction of L-DOPA 2,3-dioxygenases with DHHCA/6-X-DHHCA derivatives as a function of oxygen concentration was followed by the appearance of the steady-state cleavage product by using UV–visible spectroscopy.” left out
as §3, with “S52). […]” for “S52).”

[10] = substrate: O=C(O)CCc1cc(O)c(O)cc1Br; test: as above; format: biochemical, Streptomyces lincolnensis; conditions: other: S. lincolnensis enzyme, pH 7.5, 22 °C
Protocol: as §1
as §2, with “Molecular oxygen percentages were converted to molar concentrations using a reference temperature of 22 °C. The reaction of L-DOPA 2,3-dioxygenases with DHHCA/6-X-DHHCA derivatives as a function of oxygen concentration was followed by the appearance of the steady-state cleavage product by using UV–visible spectroscopy.” left out
as §3, with “S52). […]” for “S52).”

[11] = substrate: O=C(O)CCc1ccc(O)c(O)c1; test: as above; format: biochemical, Streptomyces lincolnensis; conditions: other: S. lincolnensis enzyme, pH 7.5, 22 °C
Protocol: as §1
as §2, with “Molecular oxygen percentages were converted to molar concentrations using a reference temperature of 22 °C. The reaction of L-DOPA 2,3-dioxygenases with DHHCA/6-X-DHHCA derivatives as a function of oxygen concentration was followed by the appearance of the steady-state cleavage product by using UV–visible spectroscopy.” left out
as §3, with “S52). […]” for “S52).”

[12] = saturating catecholic substrate, 22 °C, pH 7.5

Molecule: N#Cc1cc(O)c(O)cc1CCN [Compound 6-cyanoDA]
- Catecholic pKa value relative to L-DOPA x 100 [1]: 80%
- pK a value of dopamine counterpart ([1]; similarly 6-substituted dopamine): 7.03 ± 0.06
- E1/2 (mV) at pH 7.4 relative to L-DOPA x 100 [2]: 129%
- kSP, O2 (μM^-1 min^-1) at pH 7.5 relative to L-DOPA x 100 for LmbB1 [3]: 16%
- kSP, O2 (μM^-1 min^-1) at pH 7.5 relative to L-DOPA x 100 for ShjDDO [4]: 3%
- CSEV (Å^3) relative to L-DOPA x 100 [5]: 94%

Molecule: L-DOPA 2,3-dioxygenase from S. hygroscopicus jingganensis (ShjDDO) (Streptomyces hygroscopicus subsp. jinggangensis 5008)
- Km ([6]; pH 7.5, 22 °C): 228 ± 53 µM
- Km [6, 12]: 1019 ± 236 µM
- Km (O=C(O)CCc1cc(O)c(O)cc1Br; pH 7.5, 22 °C): 926 ± 169 µM
- Km (O=C(O)CCc1cc(O)c(O)cc1Br; [12]): 759 ± 66 µM
- Km (O=C(O)CCc1ccc(O)c(O)c1; pH 7.5, 22 °C): 422 ± 94 µM
- Km (O=C(O)CCc1ccc(O)c(O)c1; [12]): 1059 ± 246 µM

Molecule: NCCc1ccc(O)c(O)c1 [Dopamine (DA, 2), dopamine]
- (E p)a Oxidation ([7]; pH 6.0): 354 mV
- (E p)c Reduction ([7]; pH 6.0): 84 mV
- E1/2 ([7]; pH 6.0): 219 mV
- Ipa/Ipc ([7]; pH 6.0): 2.89
- ΔE p ([7]; pH 6.0): 270 mV
- (E p)a Oxidation ([7]; pH 7.4): 178 mV
- (E p)c Reduction ([7]; pH 7.4): 54 mV
- E1/2 ([7]; pH 7.4): 116 mV
- Ipa/Ipc ([7]; pH 7.4): 1.32
- ΔE p ([7]; pH 7.4): 124 mV
- Catecholic pKa value relative to L-DOPA x 100 [1]: 102%
- E1/2 (mV) at pH 7.4 relative to L-DOPA x 100 [2]: 58%
- kSP, O2 (μM^-1 min^-1) at pH 7.5 relative to L-DOPA x 100 for LmbB1 [3]: 6%
- CSEV (Å^3) relative to L-DOPA x 100 [5]: 84%
- pK a value [8]: 8.99 ± 0.05

B1: L-DOPA 2,3-dioxygenase from S. lincolnensis (LmbB1) (Streptomyces lincolnensis) (protein)
chain: MPSVKSMPPVSVHHVGVQTADLDNSISWYQEFFGCTVSWTLDTFSALTHSRLPGIERLAELRYGDVRFHHIGVKSGAAERSPAEANQFQHVCFAVGSPTELEAWRSRWLELYARGRWTFAVPERATDIDVDKDGVRSFYALDPNGLEYEFTYVPDGPR
- Km [9]: 131 ± 16 µM
- Km [10]: 205 ± 24 µM
- Km [11]: 922 ± 152 µM
